Laboratory results from US7795315B2, “N-(2-amino-phenyl)-amide derivatives” (Hoffman-La Roche Inc., priority 2008, dated 2010).

Columns and labels:
Type in all cases: cell-based
[1] = test system: HCT-116 colon cancer cells; assay: Antiproliferative activity, growth inhibition (MTS/WST assay); conditions: Homo sapiens, 72 hour growth inhibition, read-out: GI50 HCT116
Description: The novel compounds of the present invention were tested for their ability to inhibit growth of various cancer cell lines (HeLa, MCF7, U2OS, HepG2, HL60, HCT-116) using in vitro growth inhibition assays described below.
Cells were seeded in 96-well culture plates (200 microliters/well at different seeding concentrations depending on cell type) and incubated overnight at 37 degrees Celsius in 5% CO2. After adding compound dilutions to the cells (DMSO concentration kept below 0.5%), the cells were incubated at 37 degrees Celsius in 5% CO2 for 72 hours. The effects on proliferation were determined by addition of MTS reagent (Promega) according to the manufacturer's instruction, followed by incubation for 2 hours at 37 degrees Celsius in 5% CO2, and finally recording the absorbance at 490 nm using an ELISA plate reader.
Similar to MTS assay except that the developer is the CCK-8 reagent (Dojindo) and the plate reader is set to 450 nm absorbance.
GI50 values against HCT-116 colon cancer cells for specific representative compounds can be found in Table 4.

[2] = test system: p21 promoter-luciferase construct in HeLa cells; assay: p21 reporter gene induction; conditions: 3 micromolar, 15 hours, relative to SNDX-275
Description: (§1) The novel compounds of the present invention were tested for their ability to induce p21 gene expression using a reporter gene assay involving HeLa cells transfected with a p21 promoter-luciferase construct. The p21 promoter contained the Sp1/Sp3 binding site for HDAC but not the upstream p53 binding site. Briefly, the day before transfection, HeLa cells were seeded at 11,000 cells/well in a 96-well culture plate and incubated at 37 degrees Celsius in 5% CO2 overnight. For transfection, the medium was removed and replaced with 100 microliters/well transfection media previously prepared as follows: 5 microliters serum-free DMEM, 0.15 microliters Fugene 6 reagent, 40 ng p21-luc, 10 ng GFP were mixed gently and incubated at room temperature for 30 minutes; then 98 microliters DMEM (with 10% FBS, 1% penicillin and streptomycin) was added to the DNA:Fugene 6 reagent complex and mixed gently. After incubating the cells for 24 hours at 37 degrees Celsius in 5% CO2, fresh media and test compounds were added to the wells and the cells further incubated for 15 hours at 37 degrees Celsius in 5% CO2. Cells were lysed by adding 80 microliters/well of a cell culture lysis reagent (Promega). 50 microliters of each lysate was taken for GFP detection using an excitation wavelength of 486 nm and detection at 527 nm. 100 microliters Luciferase assay reagent (Promega) was then added to every 20 microliters cell lysate for luminometer detection. […] Induction activity for specific representative compounds can be found in Table 4.

[3] = test system: klf2 promoter-luciferase construct in A204 cells; assay: klf2 reporter gene induction (p21 versus klf2 selectivity); conditions: SNDX-275 p21/klf2 ratio defined as 1.0; for p21/klf2 (RP3): relative selectivity compared with SNDX-275: 3 micromolar; for p21/klf2 (RP10): relative selectivity compared with SNDX-275: 10 micromolar
Description: as §1
The novel compounds of the present invention were tested for their ability to induce klf2 gene expression using a reporter gene assay involving A204 cells transfected with a klf2 promoter-luciferase construct. The klf2 promoter contained the MEF2 binding site for HDAC3/class IIa HDAC complex. Briefly, the day before transfection, A204 cells were seeded at 11,000 cells/well in a 96-well culture plate and incubated at 37 degrees Celsius in 5% CO2 overnight. For transfection, the medium was removed and replaced with 100 microliters/well transfection media previously prepared as follows: 5 microliters serum-free DMEM, 0.15 microliters Fugene 6 reagent, 40 ng klf2-luc, 10 ng GFP were mixed gently and incubated at room temperature for 30 minutes; then 98 microliters DMEM (with 10% FBS, 1% penicillin and streptomycin) was added to the DNA:Fugene 6 reagent complex and mixed gently. After incubating the cells for 24 hours at 37 degrees Celsius in 5% CO2, fresh media and test compounds were added to the wells and the cells further incubated for 15 hours at 37 degrees Celsius in 5% CO2. Finally, 10 ng/ml TNF-α was added and the cells further incubated for 4 hours. Cells were lysed by adding 80 microliters/well of a cell culture lysis reagent (Promega). 50 microliters of each lysate was taken for GFP detection using an excitation wavelength of 486 nm and detection at 527 nm. 100 microliters Luciferase assay reagent (Promega) was then added to every 20 microliters cell lysate for luminometer detection.

| Structure (SMILES) | GI50 [1] [nM] | p21 (RP3): relative induction potency compared with SNDX-275 [2] [%] | p21/klf2 (RP3): relative selectivity compared with SNDX-275 [3] | p21/klf2 (RP10): relative selectivity compared with SNDX-275 [3] |
| --- | --- | --- | --- | --- |
| CN(C)CCNC(C(=O)Nc1ccc(OC(F)(F)F)cc1)c1ccc(/C=C/C(=O)Nc2ccccc2N)cc1 (stereo not drawn) [Example 4-6, (E)-N-(2-Amino-phenyl)-3-{4-[(2-dimethylamino-ethylamino)-(4-trifluoromethoxy-phenylcarbamoyl)-methyl]-phenyl}-acrylamide] | 600 | 184 | 1.4 | 3.0 |
| Cc1ccc(NC(=O)C(NCCN2CCOCC2)c2ccc(/C=C/C(=O)Nc3ccccc3N)cc2)cc1 (stereo not drawn) [Example 30-54, (E)-N-(2-Amino-phenyl)-3-{4-[(2-morpholin-4-yl-ethylamino)-p-tolylcarbamoyl-methyl]-phenyl}-acrylamide] | 1000 | 183 | 2.0 | 1.3 |
| Nc1ccccc1NC(=O)/C=C/c1ccc(C(NCCN2CCOCC2)C(=O)Nc2ccc(C(F)(F)F)cc2F)cc1 (stereo not drawn) [Example 4-22, (E)-N-(2-Amino-phenyl)-3-{4-[(2-fluoro-4-trifluoromethyl-phenylcarbamoyl)-(2-morpholin-4-yl-ethylamino)-methyl]-phenyl}-acrylamide] | 1200 | 103 | 1.8 | 2.0 |
| C[C@@H]1CN(CCNC(C(=O)Nc2ccc(C(F)(F)F)cc2)c2ccc(/C=C/C(=O)Nc3ccccc3N)cc2)C[C@H](C)O1 (stereo partly drawn) [Example 9-28, (E)-N-(2-Amino-phenyl)-3-{4-[[2-((2R,6S)-2,6-dimethyl-morpholin-4-yl)-ethylamino]-(4-trifluoromethyl-phenylcarbamoyl)-methyl]-phenyl}-acrylamide] | 1800 | 33 | 0.5 | 0.9 |
| Nc1ccccc1NC(=O)/C=C/c1ccc(C(NCCN2CCOCC2)C(=O)Nc2ccc(C(F)(F)F)cc2)cc1 (stereo not drawn) [Example 30, (E)-N-(2-Amino-phenyl)-3-{4-[(2-morpholin-4-yl-ethylamino)-(4-trifluoromethyl-phenylcarbamoyl)-methyl]-phenyl}-acrylamide] | 800 | 100 | 1.3 | 3.9 |
| Nc1ccccc1NC(=O)/C=C/c1ccc(C(NCCN2CCOCC2)C(=O)Nc2ccc(OC(F)(F)F)cc2)cc1 (stereo not drawn) [Example 4-4, (E)-N-(2-Amino-phenyl)-3-{4-[(2-morpholin-4-yl-ethylamino)-(4-trifluoromethoxy-phenylcarbamoyl)-methyl]-phenyl}-acrylamide] | 1100 | 125 | 1.2 | 3.1 |
